Reference: US6903113B2, “Urea substituted imidazopyridines” (3M Innovative Properties Company, priority 2000, dated 2005)

Tests used:
interferon (α) = assay: Cytokine Induction in Human Cells: interferon (α) by ELISA; type: cell-based; conditions: human PBMC, 18 to 24 hours incubation, compounds generally tested at 30-0.014 μM; read-out: Lowest Effective Concentration Interferon
Excerpt: (§1) An in vitro human blood cell system is used to assess cytokine induction. Activity is based on the measurement of interferon and tumor necrosis factor (α) (IFN and TNF, respectively) secreted into culture media as described by Testerman et. al. In “Cytokine Induction by the Immunomodulators Imiquimod and S-27609”, Journal of Leukocyte Biology, 58, 365-372 (September, 1995).
(§2) Whole blood from healthy human donors is collected by venipuncture into EDTA vacutainer tubes. Peripheral blood mononuclear cells (PBMC) are separated from whole blood by density gradient centrifugation using Histopaque®-1077. Blood is diluted 1:1 with Dulbecco's Phosphate Buffered Saline (DPBS) or Hank's Balanced Salts Solution (HBSS). The PBMC layer is collected and washed twice with DPBS or HBSS and resuspended at 4×10^6 cells/mL in RPMI complete. The PBMC suspension is added to 48 well flat bottom sterile tissue culture plates (Costar, Cambridge, Mass. or Becton Dickinson Labware, Lincoln Park, N.J.) containing an equal volume of RPMI complete media containing test compound.
(§3) The compounds are solubilized in dimethyl sulfoxide (DMSO). The DMSO concentration should not exceed a final concentration of 1% for addition to the culture wells. The compounds are generally tested at concentrations ranging from 30-0.014 μM.
(§4) The solution of test compound is added at 60 μM to the first well containing RPMI complete and serial 3 fold dilutions are made in the wells. The PBMC suspension is then added to the wells in an equal volume, bringing the test compound concentrations to the desired range (30-0.014 μM). The final concentration of PBMC suspension is 2×10^6 cells/mL. The plates are covered with sterile plastic lids, mixed gently and then incubated for 18 to 24 hours at 37° C. in a 5% carbon dioxide atmosphere.
(§5) Following incubation the plates are centrifuged for 10 minutes at 1000 rpm (˜200×g) at 4° C. The cell-free culture supernatant is removed with a sterile polypropylene pipet and transferred to sterile polypropylene tubes. Samples are maintained at −30 to −70° C. until analysis. The samples are analyzed for interferon (α) by ELISA and for tumor necrosis factor (α) by ELISA or IGEN Assay
Interferon (α) concentration is determined by ELISA using a Human Multi-Species kit from PBL Biomedical Laboratories, New Brunswick, N.J. Results are expressed in pg/mL.
(§6) The table below lists the lowest concentration found to induce interferon and the lowest concentration found to induce tumor necrosis factor for each compound.

[1] = test system: tumor necrosis factor (α); assay: Cytokine Induction in Human Cells: tumor necrosis factor (α) by ELISA or IGEN Assay; type: cell-based; conditions: human PBMC, 18 to 24 hours incubation, compounds generally tested at 30-0.014 μM; read-out: Lowest Effective Concentration Tumor Necrosis Factor
Excerpt: as §1, §2, §3, §4, §5
Tumor necrosis factor (α) (TNF) concentration is determined using ELISA kits available from Biosource International, Camarillo, Calif. Alternately, the TNF concentration can be determined by Origen® M-Series Immunoassay and read on an IGEN M-8 analyzer from IGEN International, Gaithersburg, Md. The immunoassay uses a human TNF capture and detection antibody pair from Biosource International, Camarillo, Calif. Results are expressed in pg/mL.
as §6

SMILES: CCCCc1nc2c(N)nc(C)c(C)c2n1CCCCNS(=O)(=O)N(C)C [Example 6, N′-[4-(4-Amino-2-butyl-6,7-dimethyl-1H-imidazo[4,5-c]pyridin-1-yl)butyl]-N,N-dimethylsulfamide]
- minimal effective concentration (interferon (α)): 0.01 µM
- minimal effective concentration [1]: 0.01 µM
- melting point: 129.5 to 131 °C
